# Laboratory results reported in patent US8580762B2, “Substituted purine and 7-deazapurine compounds” (Epizyme, Inc., priority 2010, dated 2013).
# Target: DOT1L(1-416) (Homo sapiens, UniProt Q8TEK3)
# Experiment: Determination of IC50: DOT1L(1-416) methyltransferase assay, 3H-SAM, oligonucleosome substrate, Flashplate
# Format: biochemical
# Settings: DOT1L IC50, class symbols
# Outline: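 Compounds in 10-point 3-fold DMSO dilutions were tested in reactions started with substrate mix of 200 nM [3H]-SAM, 600 nM unlabeled SAM and 20 nM oligonucleosome. Reactions ran 120 min at room temperature and were quenched with 100 μM SAM. Labeled substrate was captured on streptavidin Flashplates and counted by scintillation to give IC50.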
# Chain of DOT1L(1-416) (Q8TEK3 1-416): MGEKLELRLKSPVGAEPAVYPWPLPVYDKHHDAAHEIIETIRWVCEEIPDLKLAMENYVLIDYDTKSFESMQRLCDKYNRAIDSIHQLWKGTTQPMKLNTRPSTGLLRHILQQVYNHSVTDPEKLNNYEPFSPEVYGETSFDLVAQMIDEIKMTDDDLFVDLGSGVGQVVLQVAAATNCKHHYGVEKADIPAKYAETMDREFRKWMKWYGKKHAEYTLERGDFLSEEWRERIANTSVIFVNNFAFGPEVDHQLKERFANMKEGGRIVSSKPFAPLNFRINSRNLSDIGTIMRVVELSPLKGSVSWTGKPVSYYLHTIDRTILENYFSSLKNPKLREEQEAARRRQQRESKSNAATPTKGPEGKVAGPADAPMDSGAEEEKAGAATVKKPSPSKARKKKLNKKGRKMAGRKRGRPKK
row,SMILES,IC50 [nM]
1,"CC(C)[N+]([O-])(CC1O[C@@H](n2cnc3c(N)ncnc32)[C@H](O)[C@@H]1O)[C@H]1C[C@H](CCc2nc3cc(C(C)(C)C)ccc3[nH]2)C1 (stereo partly drawn) [Compound 107, (R,1s,3R)-N-(((2R,35,4R,5R)-5-(6-amino-9H-purin-9-yl)-3,4-dihydroxy-tetrahydrofuran-2-yl)methyl)-3-(2-(5-(tert-butyl)-1H-benzo[d]imidazol-2-yl)ethyl)-N-isopropyl-cyclobutanamine oxide]",< 100

# Same assay, conditions: class symbols; read-out: DOT1L IC50
row,SMILES,IC50 [nM]
1,"CC(C)(C)c1ccc2[nH]c(CCC3CC(N(C[C@H]4C[C@@H](n5ccc6c(N)ncnc65)[C@H](O)[C@@H]4O)CC(F)(F)F)C3)nc2c1 (stereo partly drawn) [Compound 66, (1R,2S,3R,5R)-3-(4-amino-7H-pyrrolo[2,3-d]pyrimidin-7-yl)-5-(((3-(2-(5-(tert-butyl)-1H-benzo[d]imidazol-2-yl)ethyl)cyclobutyl) (2,2,2-trifluoroethyl)amino)methyl)cyclopentane-1,2-diol]",100 to 1000
2,"CN(C[C@H]1C[C@@H](n2ccc3c(N)ncnc32)[C@H](O)[C@@H]1O)[C@H]1C[C@H](CCc2nc3cc(OC(F)(F)F)ccc3[nH]2)C1 [Compound 57, (1R,2S,3R,5R)-3-(4-amino-7H-pyrrolo[2,3-d]pyrimidin-7-yl)-5-((methyl((1s,3R)-3-(2-(5-(trifluoromethoxy)-1H-benzo[d]imidazol-2-yl)ethyl)cyclobutyl)amino)methyl)cyclopentane-1,2-diol]",< 100
3,"CN(C[C@H]1C[C@@H](n2ccc3c(N)ncnc32)[C@H](O)[C@@H]1O)C1CC(CCc2nc3cc(C4COC4)ccc3[nH]2)C1 (stereo partly drawn) [Compound 62, (1R,2S,3R,5R)-3-(4-amino-7H-pyrrolo[2,3-d]pyrimidin-7-yl)-5-((methyl(3-(2-(5-(oxetan-3-yl)-1H-benzo[d]imidazol-2-yl)ethyl)cyclobutyl)amino)methyl)cyclopentane-1,2-diol]",100 to 1000
4,"CC(C)N(C[C@H]1O[C@@H](n2cnc3c(N)ncnc32)[C@H](O)[C@@H]1O)[C@H]1C[C@@H](CCc2nc3cc(C4CC4)ccc3[nH]2)C1 [Compound 116, (2R,3R,4S,5R)-2-(6-amino-9H-purin-9-yl)-5-((((1r,3S)-3-(2-(5-cyclopropyl-1H-benzo[d]imidazol-2-yl)ethyl)cyclobutyl) (isopropyl)amino)methyl)tetrahydrofuran-3,4-diol]",< 100
5,"CC(C)N(C[C@H]1O[C@@H](n2ccc3c(N)ncnc32)[C@H](O)[C@@H]1O)[C@H]1C[C@@H](CCc2nc3cc(C(C)(C)C)ccc3[nH]2)C1 [Compound 90, (2R,3R,4S,5R)-2-(4-amino-7H-pyrrolo[2,3-d]pyrimidin-7-yl)-5-((((1r,3S)-3-(2-(5-(tert-butyl)-1H-benzo[d]imidazol-2-yl)ethyl)cyclobutyl)(isopropyl)amino)methyl)tetrahydrofuran-3,4-diol]",< 100
6,"CC(C)(C)c1ccc2[nH]c(CC[C@H]3C[C@H](N(C[C@H]4O[C@@H](n5ccc6c(N)ncnc65)[C@H](O)[C@@H]4O)CC(F)(F)F)C3)nc2c1 [Compound 77, (2R,3R,4S,5R)-2-(4-amino-7H-pyrrolo[2,3-d]pyrimidin-7-yl)-5-((((1s,3R)-3-(2-(5-(tert-butyl)-1H-benzo[d]imidazol-2-yl)ethyl)cyclobutyl)(2,2,2-trifluoroethyl)amino)methyl)tetrahydrofuran-3,4-diol]",100 to 1000
7,"CC(C)(C)c1ccc2[nH]c(CC[C@H]3C[C@H](N(C[C@H]4O[C@@H](n5cnc6c(N)ncnc65)[C@H](O)[C@@H]4O)CC(F)(F)F)C3)nc2c1 [Compound 80, (2R,3R,4S,5R)-2-(6-amino-9H-purin-9-yl)-5-((((1s,3R)-3-(2-(5-(tert-butyl)-1H-benzo[d]imidazol-2-yl)ethyl)cyclobutyl) (2,2,2-trifluoroethyl)amino)methyl)tetrahydrofuran-3,4-diol]",100 to 1000
